How the values were obtained:
psoriasis = test: 4 weeks clinical study of oral ASM981 in psoriatic patients; assay type: in vivo, human; conditions: 8 ASM981-treated patients, oral 60 mg/day (30 mg b.i.d.)
Experimental: A clinical study was initiated with a standardized oral formulation of ASM981 (pimecrolimus) to treat psoriatic patients. The purpose of this study was both to investigate the nature of the alteration in gene expression profiles caused by the administration of a standardised oral formulation of pimecrolimus and to produce the necessary data to allow the bioequivalence of other pharmaceutically equivalent oral formulations of pimecrolimus to be tested. The dose used was 60 mg/day, given as 30 mg twice a day (b.i.d.). To make this dose the […] tablets were cut in half using a special cutter (Tablettenteiler NR.96) so as to obtain 30 mg of ASM981 or a matched amount of placebo. ASM981 was evaluated as treatment for psoriasis using an oral dose of 60 mg (30 mg b.i.d) during a 4 weeks clinical study. The oral formulation used was a highly standardized oral dosage form that could be produced in large amounts and with a highly uniform composition, this was oral formulation A. The cohort included 10 patients; 8 received oral formulation A and 2 received a placebo. Blood samples were collected before the first administration to establish the gene expression baseline and on days 13 or 14 after treatment with ASM981 or placebo and submitted to gene expression analysis in order to gain insights into the mechanisms of action of the compound.

macrophilin FKBP12 = macrophilin FKBP12 (Homo sapiens, UniProt P62942); conditions: relative to FK506; cited from earlier work
Sequence of macrophilin FKBP12 (P62942 whole entry): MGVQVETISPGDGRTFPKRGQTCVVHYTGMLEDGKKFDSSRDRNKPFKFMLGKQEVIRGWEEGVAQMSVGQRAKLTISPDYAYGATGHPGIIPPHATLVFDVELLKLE

[1] = system: atopic dermatitis or psoriasis; conditions: topical formulation; cited from earlier work
[2] = system: reperfusion after ischemia in the brain; conditions: in vivo; cited from earlier work

CC[C@@H]1/C=C(\C)C[C@H](C)C[C@H](OC)[C@H]2O[C@@](O)(C(=O)C(=O)N3CCCC[C@H]3C(=O)O[C@H](/C(C)=C/[C@@H]3CC[C@H](Cl)[C@H](OC)C3)[C@H](C)[C@@H](O)CC1=O)[C@H](C)C[C@@H]2OC [ASM981, 33-Epichloro-33-desoxy-ascomycin]
psoriasis (clinical data) (psoriasis): reduction of psoriasis
affinity for macrophilin FKBP12, fold lower than FK506 (macrophilin FKBP12): 3 fold
outcome of clinical trials in atopic dermatitis or psoriasis [1]: clinical regression
anti-inflammatory properties in reperfusion after ischemia in the brain [2]: successfully tested
